In patent publication US8946439B2, “Amide compounds, compositions and uses thereof” (Evotec AG, priority 2008, dated 2015):
Read-outs that look alike come from different tables or passages of the source.

Key:
hP2X2/3H = molecular target: T1, hP2X2/3H (Homo sapiens, UniProt P56373+Q9UBL9); assay: Calcium uptake assay (P2X antagonist assay), P2X2/3 heteromer; assay type: cell-based; conditions: hP2X2/3H
T1 construct: expressed in transfected cells; host or cells: e.g. HEK293 or 1321N1
T1 sequence (Q9UBL9 1-471): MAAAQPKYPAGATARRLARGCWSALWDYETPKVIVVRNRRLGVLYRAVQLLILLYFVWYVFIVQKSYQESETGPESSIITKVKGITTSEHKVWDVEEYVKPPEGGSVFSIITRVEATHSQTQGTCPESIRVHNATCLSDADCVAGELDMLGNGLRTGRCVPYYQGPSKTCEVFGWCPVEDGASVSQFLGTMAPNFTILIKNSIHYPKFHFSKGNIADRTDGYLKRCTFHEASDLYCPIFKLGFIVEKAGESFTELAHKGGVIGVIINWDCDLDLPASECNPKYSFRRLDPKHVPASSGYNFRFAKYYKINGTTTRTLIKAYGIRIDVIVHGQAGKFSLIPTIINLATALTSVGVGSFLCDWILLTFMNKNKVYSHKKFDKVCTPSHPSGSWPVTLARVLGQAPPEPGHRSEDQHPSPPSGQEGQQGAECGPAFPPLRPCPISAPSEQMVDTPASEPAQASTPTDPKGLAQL
T1 sequence (P56373 1-397): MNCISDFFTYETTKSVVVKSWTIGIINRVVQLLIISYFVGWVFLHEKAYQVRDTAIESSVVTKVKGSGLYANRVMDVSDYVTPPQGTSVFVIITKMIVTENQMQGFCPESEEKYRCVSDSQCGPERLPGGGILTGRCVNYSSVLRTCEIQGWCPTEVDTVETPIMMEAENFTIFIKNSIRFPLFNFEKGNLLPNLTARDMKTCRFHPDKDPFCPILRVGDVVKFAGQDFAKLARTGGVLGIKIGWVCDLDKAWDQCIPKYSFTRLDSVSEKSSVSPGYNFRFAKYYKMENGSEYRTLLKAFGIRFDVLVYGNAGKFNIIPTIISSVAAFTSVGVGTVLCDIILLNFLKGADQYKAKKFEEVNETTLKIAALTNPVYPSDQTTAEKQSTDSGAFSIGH
Method in brief: (§1)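 Stably or transiently transfected HEK293 or 1321N1 cells; the heteromer is made by adding P2X3 to a P2X2-stable line, with heteromer function isolated pharmacologically. The peak-minus-baseline FLIPR calcium signal gives % inhibition and a 4-parameter-logistic IC50.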

hP2X3 = molecular target: T2, hP2X3 (Homo sapiens, UniProt P56373); assay: Calcium uptake assay (P2X antagonist assay), P2X3 homomer; assay type: cell-based; conditions: hP2X3
T2 construct: expressed in transfected cells; host or cells: e.g. HEK293 or 1321N1
T2 sequence (P56373 1-397): T1 sequence (P56373 1-397)
Method in brief: as §1

[1] = Ca influx (calcium uptake assay), read-out: IC50 hP2X2/3H
[2] = Ca influx (calcium uptake assay), read-out: IC50 hP2X3
[3] = calcium uptake assay, read-out: IC50 hP2X2/3H (nM), Ca Influx
[4] = calcium uptake assay, read-out: IC50 hP2X3 (nM), Ca Influx

Row | IC50 (hP2X2/3H; [1]) [nM] | IC50 (hP2X3; [2]) [nM] | IC50 (hP2X2/3H; [3]) [nM] | IC50 (hP2X3; [4]) [nM] | Compound
1 | < 100 | < 100 | – | – | COCC(C)Oc1cc(C(=O)N[C@H](C)c2ccc(C)nc2)cc(-c2ccc(C)cc2)c1 (some centres unmarked) [Compound 299]
2 | < 100 | < 100 | – | – | Cc1ccc(-c2cc(OCCO)cc(C(=O)N[C@H](C)c3ccc(C)nc3)c2)cc1 [Compound 302]
3 | < 100 | < 100 | – | – | Cc1ccc(-c2cc(OC3CCOC3)cc(C(=O)N[C@H](C)c3cnc(C)nc3)c2)c(C#N)c1 (some centres unmarked) [Compound 358]
4 | < 100 | < 100 | – | – | Cc1ccc(-c2cc(OCC3CCCO3)cc(C(=O)N[C@H](C)c3ccc(C)nc3)c2)cc1 (stereo partly drawn) [Compound 310, 4′-Methyl-N—((R)-1-(6-methylpyridin-3-yl)ethyl)-5-((tetrahydrofuran-2-yl)methoxy)biphenyl-3-carboxamide]
5 | < 100 | < 100 | – | – | Cc1ccc(-c2cc(OCC(O)CO)cc(C(=O)N[C@H](C)c3ccc(C)nc3)c2)cc1 (some centres unmarked) [Compound 318]
6 | < 100 | < 100 | – | – | Cc1ccc(-c2cc(Oc3nc(C)cs3)cc(C(=O)N[C@H](C)c3ccc(C)nc3)c2)nc1 [Compound 374]
7 | > 1000 | < 100 | – | – | Cc1ccc(-c2cc(C(=O)NCc3cnc(C)nc3)cc(S(C)(=O)=O)c2)nc1 [Compound 307]
8 | < 100 | < 100 | – | – | COCC(CO)Oc1cc(C(=O)N[C@H](C)c2ccc(C)nc2)cc(-c2ccc(C)cc2C#N)c1 (some centres unmarked) [Compound 378]
9 | < 100 | < 100 | – | – | Cc1ccc(-c2cc(Oc3ncc(CO)s3)cc(C(=O)N[C@H](C)c3ccc(C)nc3)c2)nc1 [Compound 372]
10 | 100 to 500 | < 100 | – | – | Cc1ccc(-c2cc(C(=O)NCc3ncc(C(F)(F)F)cc3Cl)cc(S(C)(=O)=O)c2)nc1 [Compound 350]
11 | < 100 | < 100 | – | – | Cc1ccc(-c2cc(C(=O)NCc3ccc(C)nc3)cc(C(O)CN3CCOCC3CO)c2)cc1 (centres unmarked) [Compound 390]
12 | 100 to 500 | < 100 | – | – | CCN(CC)CC(O)c1cc(C(=O)N[C@H](C)c2ccc(C)nc2)cc(-c2ccc(C)cn2)c1 (stereo partly drawn) [Compound 342, 3-(2-(Diethylamino)-1-hydroxyethyl)-5-(5-methylpyridin-2-yl)-N—((R)-1-(6-methylpyridin-3-yl)ethyl)benzamide]
13 | 100 to 500 | < 100 | – | – | Cc1ccc(-c2cc(OCC(O)CO)cc(C(=O)N[C@H](C)c3ccc(C)nc3)c2)nc1 (some centres unmarked) [Compound 344]
14 | 100 to 500 | < 100 | – | – | Cc1ccc(-c2cc(OC3COCC3O)cc(C(=O)N[C@H](C)c3cnc(C)nc3)c2)nc1 (some centres unmarked) [Compound 364]
15 | < 100 | < 100 | – | – | Cc1ccc(-c2cc(OCC3CCOC3)cc(C(=O)N[C@H](C)c3ccc(C)nc3)c2)c(C#N)c1 (some centres unmarked) [Compound 313]

More lines, now with the values behind:

Row | Compound | IC50 (hP2X2/3H; [1]) [nM] | IC50 (hP2X3; [2]) [nM] | IC50 (hP2X2/3H; [3]) [nM] | IC50 (hP2X3; [4]) [nM]
16 | Cc1ccc(-c2cc(Oc3ccccn3)cc(C(=O)N[C@H](C)c3cnc(C)nc3)c2)c(C#N)c1 [Compound 258] | 100 to 500 | < 100 | – | –
17 | Cc1ccc(-c2cc(C(=O)NCc3ncc(C(F)(F)F)cc3Cl)cc(C(=O)N3CCCC3)c2)cc1 [Compound 74] | – | – | < 100 | < 100
18 | Cc1ccc(-c2cc(C(=O)NCc3ccc(C)nc3)cc(C(=O)N3CC[C@@H](NC(=O)OC(C)(C)C)C3)c2)cc1 [Compound 100] | – | – | 100 to 500 | 501 to 1000
19 | Cc1ccc(-c2cc(C(=O)NCc3ccc(C(F)(F)F)nc3)cc(C(=O)N3CC(O)C3)c2)cc1 [Compound 130, 5-(3-Hydroxyazetidine-1-carbonyl)-4′-methyl-N-((6-(trifluoromethyl)pyridin-3-yl)methyl)biphenyl-3-carboxamide] | – | – | < 100 | < 100
20 | Cc1ccc(-c2cc(C(=O)NCc3cnc(C)nc3)cc(C(=O)N3CCCC3C(F)(F)F)c2)cc1 (centres unmarked) [Compound 33] | – | – | < 100 | < 100
21 | Cc1ccc(-c2cc(C(=O)NCc3cnc(C)nc3)cc(C(=O)N3CCC3)c2)cc1 [Compound 30] | – | – | < 100 | < 100
22 | Cc1ccc(-c2cc(C(=O)N[C@H](C)c3cnc(C)nc3)cc(C(O)c3ccccn3)c2)cc1 (some centres unmarked) [Compound 268] | < 100 | < 100 | – | –
23 | Cc1ccc(-c2cc(C(=O)N[C@@H](C)CO)cc(S(=O)(=O)CC(C)C)c2)cc1 [Compound 281] | > 1000 | < 100 | – | –
24 | Cc1ccc(-c2cc(C(=O)NCc3cnc(C)nc3)cc(C(=O)N3CCCC3)c2)c(C#N)c1 [Compound 39, 2′-Cyano-4′-methyl-N-((2-methylpyrimidin-5-yl)methyl)-5-(pyrrolidine-1-carbonyl)biphenyl-3-carboxamide] | – | – | < 100 | < 100
25 | Cc1ccc(-c2cc(C(=O)NCc3ccc(C)nc3)cc(C(=O)N(C)[C@H]3CCNC3)c2)cc1 [Compound 172] | – | – | 100 to 500 | < 100
26 | Cc1ccc(-c2cc(Oc3ncccn3)cc(C(=O)N[C@H](C)c3cnc(C)nc3)c2)cc1 [Compound 235] | 100 to 500 | < 100 | – | –
27 | CCCS(=O)(=O)c1cc(C(=O)NCc2cnc(C)nc2)cc(-c2ccc(C)cc2)c1 [Compound 43] | – | – | < 100 | < 100
28 | Cc1ccc(-c2cc(C(=O)NC(c3ccc(C)nc3)C(F)(F)F)cc(C(=O)N3CCCC3)c2)cc1 (centres unmarked) [Compound 214] | > 1000 | > 1000 | – | –
29 | Cc1ccc(-c2cc(C(=O)N[C@H](C)c3cnc(C)nc3)cc(S(=O)(=O)CC(C)C)c2)cc1 [Compound 194] | – | – | < 100 | < 100
30 | COCCOc1cc(C(=O)N[C@H](C)c2cnc(C)nc2)cc(-c2ccc(C)cn2)c1 [Compound 266] | 100 to 500 | < 100 | – | –
31 | Cc1ccc(-c2cc(C(=O)N[C@H](C)c3ccc(C(F)(F)F)nc3)cc(C(=O)N3CCC3)c2)cc1 [Compound 75] | – | – | < 100 | < 100

Row | Compound | IC50 (hP2X2/3H; [1]) [nM] | IC50 (hP2X3; [2]) [nM] | IC50 (hP2X2/3H; [3]) [nM] | IC50 (hP2X3; [4]) [nM]
32 | Cc1ccc(-c2cc(C(=O)N[C@H](C)c3cnn(CC(F)(F)F)c3C)cc(C(=O)N3CCCC3)c2)cc1 [Compound 117] | – | – | > 1000 | 501 to 1000
33 | CCOC(=O)c1cc(C(=O)N[C@@H](C)CO)cc(-c2ccc(C)cc2)c1 [Compound 6, (S)-Ethyl 5-(1-hydroxypropan-2-ylcarbamoyl)-4′-methylbiphenyl-3-carboxylate] | – | – | 501 to 1000 | 100 to 500
34 | Cc1ccc(-c2cc(C(=O)N[C@H](C)c3cnc(C)nc3)cc(C(O)c3ccccn3)c2)nc1 (some centres unmarked) [Compound 286] | < 100 | < 100 | – | –
35 | Cc1ccc(-c2cc(C(=O)NCc3cnc4[nH]ccc4c3)cc(C(=O)N3CCCC3)c2)cc1 [Compound 231] | > 1000 | > 1000 | – | –
36 | Cc1ccc(-c2cc(Oc3ccccn3)cc(C(=O)N[C@H](C)c3ccc(C)nc3)c2)nc1 [Compound 271] | < 100 | < 100 | – | –
37 | Cc1ccc(-c2cc(C(=O)NCc3ccc4ocnc4c3)cc(C(=O)N3CCCC3)c2)cc1 [Compound 90] | – | – | < 100 | < 100
38 | Cc1ccc(-c2cc(C(=O)NCc3ccc(Cl)nc3)cc(C(=O)N(C)CC(C)C)c2)cc1 [Compound 9, N3-((6-Chloropyridin-3-yl)methyl)-N5-isobutyl-N5,4′-dimethylbiphenyl-3,5-dicarboxamide] | – | – | < 100 | < 100
39 | Cc1ccc(-c2cc(Oc3nccs3)cc(C(=O)NCc3ccc(C)nc3)c2)cc1 [Compound 238] | 100 to 500 | 100 to 500 | – | –
40 | Cc1ccc(-c2cc(C(=O)NCc3ccc(C)nc3)cc(C(O)CN3CCCC3)c2)cc1 (centres unmarked) [Compound 230] | 100 to 500 | < 100 | – | –
41 | Cc1ccc(-c2cc(C(=O)NCc3ccc(C)nc3)cc(S(=O)(=O)CC(C)C)c2)cc1 [Compound 183] | – | – | < 100 | < 100
42 | Cc1ccc(-c2cc(C(=O)NCc3cnc(C(C)C)nc3)cc(C(=O)N3CCCC3)c2)cc1 [Compound 80] | – | – | > 1000 | 501 to 1000
43 | Cc1ccc(-c2cc(C(=O)N[C@H](C)c3cnc(C)nc3)cc(S(=O)(=O)C(C)C)c2)cc1 [Compound 198] | < 100 | < 100 | – | –
44 | Cc1ccc(-c2cc(C(=O)NCc3ccc(C)nc3)cc(C(=O)N3CCN(C(C)C)CC3)c2)cc1 [Compound 125] | – | – | 100 to 500 | < 100
45 | CCCS(=O)(=O)c1cc(C(=O)NCc2ccc(C)c(S(C)(=O)=O)c2)cc(-c2ccc(C)cc2)c1 [Compound 41] | – | – | < 100 | < 100
46 | Cc1ccc(-c2cc(S(=O)(=O)N3CCCC3)cc(C(=O)NCc3ccc(Cl)c(S(C)(=O)=O)c3)c2C)cc1 [Compound 66] | – | – | > 1000 | 100 to 500
